From patent US20130344140A1, “NOVEL PHARMACEUTICAL COMBINATIONS AND METHODS FOR TREATING CANCER” (Agency for Science, Technology and Research, priority 2011, published 2013)

Experiments:
A549 cells [1] = assay: Time course of cell cycle distribution of A549 cells incubated with VX-680; format: cell-based; settings: A549, 200 nM VX-680, after 48 h
Experimental: After 48 h, more than 35% of cells were arrested in tetraploid G2/M (8N) (FIG. 2a). […] Together, the results confirmed that the 8N cells were arrested predominantly in G2 and VX-680 inhibited mitosis in part through a G2 checkpoint.

A549 cells [2] = assay: Mitotic index of A549 cells exposed to VX-680; format: cell-based; settings: A549, VX-680 200 nM
Experimental: (B) is a graph showing the Mitotic index of A549 cells exposed to VX-680. A549 cells were incubated with VX-680 (200 nM) and the mitotic cells were counted and expressed as a percentage of total cells count. To aid visualization of the condensed chromosomes, H2B-GFP was expressed in A549. Each data point represents the mean±SD (n=3).

[3] = system: Cdk/cyclin kinase activities (Cdk2, cdc2, cyclins A2 and B1) in A549 cells; assay: Cdk/cyclin kinase activities after incubation with VX-680 (immunoprecipitation, histone H1 kinase assay); format: cell-based; settings: A549, VX-680 time course
Experimental: (b) is a series of western blots showing the kinetics of Kinetics of Cdk/cyclin kinase activities after incubation with VX-680. Cdk/cyclin kinase activities were assayed in vitro (refer to Materials and Methods in Examples). Cdk2, cyclins A and B1 were immunoprecipitated from cell lysates using specific antibodies followed by in vitro kinase assays using histone H1 as a substrate. Suc1 is used to capture Cdk1 and Cdk2 complexes by protein pull down as described in Materials and Methods. […]
The immunoprecipitated beads were resuspended in 5 μl of EB buffer, 10 mM DTT and 20 to […]. […] After electrophoresis on 12.5% polyacrylamide gels, phosphorylation was analyzed by autoradiography and quantified by phosphorimage analysis.

[4] = system: cyclins A2 and B1 in A549 cells; assay: Western blot of cell cycle-related proteins after VX-680 treatment; format: cell-based; settings: A549, VX-680 time course
Experimental: (c) is a series of western blots showing the comparison of expression levels of cell cycle-related proteins (Rb, cdc2, Cdk2, cyclin A2, cyclin E1 and cyclin B1) and p53-dependent gene products (MDM2 and p21) at the indicated time points after VX-680 treatment. Downregulation of mitotic cyclins A and B and upregulation of p53-dependent genes p21 and MDM2 correlate with the activation of p53.
(§1) For western blotting, cell extracts were prepared using NP-40 lysis buffer (50 mM Tris-HCl (pH 8.0), 150 mM NaCl, 1% NP-40, 5 mM EDTA supplemented with protease and phosphatase inhibitor cocktails (Sigma).

A549 cells [5] = assay: Colony survival assay, A549; format: cell-based; settings: A549, VX-680 treatment alone, 48 h
Experimental: Colonies were counted 2 weeks after recovery in drug-free media. Cells were fixed with glutaraldehyde and stained with crystal violet. Plates are scanned and colonies were counted with an automated image analyzer. Three independent experiments were performed for each cell line.
Each data point represents the mean±S.D.
A total of 1000 cells were plated on each 10 cm plate and allowed to adhere overnight. […] After 48 h, cells were washed and recovered in fresh media for 12 days. Cells were then fixed in 6% glutaraldehyde (Sigma) and stained with crystal violet. Colonies were counted using GelCount™ (Oxford Optronix, Oxford, England). Each condition was carried out in triplicate.

[6] = system: A549 cells transfected with p53-specific siRNA; assay: Cell cycle analysis of A549 cells transfected with p53 siRNA and exposed to VX-680; format: cell-based; settings: A549 with p53 siRNA knockdown, exposed to VX-680
Experimental: (B) Extent of endoreduplication is exacerbated in cells with compromised p53 functions. A549 cells transfected with p53 siRNA (Dharmacon pool) were incubated with VX-680 (200 nM) for the indicated time periods after transfection. […] DNA-dependent cell cycle analysis was performed using flow cytometry.
p53 siRNA oligo 1 (p53si) 5′-[…] GCGUCUU-3′ (SEQ ID NO: 9), cyclin A2 siRNA 5′-[…]-3′ (SEQ ID NO: 10) and cyclin B1 siRNA 5′-[…]-3′ were from Dharmacon (Lafayette, Colo., USA) (SEQ ID NO:11). Cells were plated in six-well dishes overnight in antibiotic-free media. Cells were incubated with Optimen (GIBCO) for an hour before transfection using Lipofectamine 2000 (Invitrogen) and siRNA (30 nM) according to the manufacturer's recommendation. Cells were either harvested at 48 h after transfection or incubated with VX-680 for another 48 h before analysis.

ATM = ATM / DNA damage checkpoint dependence of VX-680-induced G2 arrest (western blot, DNA FACS profiles); format: cell-based
Experimental: as §1

[7] = system: MDA-MB 468 and HCT116 p53−/−; assay: Annexin V apoptosis assay, p53-compromised cell lines; format: cell-based; settings: various concentrations of VX-680; MDA-MB 468 and HCT116 p53−/−
Experimental: Cells were then harvested and stained for annexin V to detect apoptotic cells.
For analysis of apoptosis, cells were harvested without fixation. Apoptosis was evaluated using the annexin V (fluorescein isothiocyanate (FITC))-propidium iodide binding assay (Roche, Indianapolis, Ind., USA). The extent of apoptosis was quantified as a percentage of annexin V-positive cells over the total cell population. Flow cytometric analysis was performed on a BD LSR II System (BD Biosciences, Stockholm, Sweden). Data were analyzed using FlowJo software and ModFit LT (Verity Software House, Topsham, Me., USA).

human keratinocytes = settings: HEK cells treated with VX-680
Experimental: Primary human keratinocytes were purchased from Invitrogen and cultured in defined keratinocyte serum-free media (Invitrogen). All cell lines were cultured in a CO2 incubator (5% CO2 and 21% O2) at 37° C.
For analysis of cell cycle distribution, cells were harvested and fixed in 70% ethanol/PBS solution. Cells were stained in propidium-iodide containing solution (25 μg/ml propidium iodide supplemented with 1 mg/ml RNase A, in PBS (pH 7.8); Sigma Chemical, St Louis, Mo., USA) for 15 min at room temperature.

With `Cc1cc(Nc2cc(N3CCN(C)CC3)nc(Sc3ccc(NC(=O)C4CC4)cc3)n2)[nH]n1` [VX-680, cyclopropane carboxylic acid of {4-[4-(4-methyl-piperazin-1-yl)-6-(5-methyl-2H-pyrazol-3-ylamino)-pyrimidin-2-ylsulphanyl]-phenyl}-amide] the “cells arrested in tetraploid G2/M (8N)” value (A549 cells [1]) was “more than 35%”, the “time at which the mitotic index peaked” value (A549 cells [2]; after treatment) was 16 h and the mitotic index (A549 cells [2]; at 48 h) was 2%. The “Cdk2 and cdc2 kinase activities” value [3] was “markedly reduced to undetectable levels”, the “cyclins A2- and B1-associated kinase activities” value [3] was “rapid reduction” and the “protein levels of cyclins A2 and B1” value [4] was “timedependent decrease”. The number of colonies (A549 cells [5]) was “drastically reduced”, the “cells with 16n DNA content” value [6] was > 15% and the “p53 phosphorylation on Ser15” value (ATM; VX-680-treated cells) was “without detectable phosphorylation on Ser15”. The “activation of ATM (Ser1981 phosphorylation)” value (ATM; low concentrations of VX-680) was “did not induce activation of ATM”, the “apoptosis (annexin V)” value [7] was “underwent apoptosis” and the tetraploidy formation (human keratinocytes) was “significant tetraploid G2/M population”.
